One data set concerns blood viscosity. Further details: method as in PMID 28299338. As to conditions: rat model; cited from earlier work.
The next data set addresses T1, human TRPV1 (Homo sapiens, UniProt Q8NER1).
T1 construct: The full length of each of human transient receptor potential ankyrin 1 (TRPA1), transient receptor potential cation channel subfamily V member 1 (TRPV1); expressed in transfected cells
The data set is described as follows: Ca2+ influx assay for TRP channel agonistic activity in T-REx-293 cells. It is filed as cell-based. To be noted: 10 µmol/L test ingredient, positive control 2 µmol/L capsaicin, read-out: % Activation compared to positive control, TRPV1. The source says:
(§1) The full length of each of human transient receptor potential ankyrin 1 (TRPA1), transient receptor potential cation channel subfamily V member 1 (TRPV1), transient receptor potential cation channel subfamily V member 4 (TRPV4), and transient receptor potential cation channel subfamily M member 8 (TRPM8) coding region was introduced into a pcDNA4/TO vector (Thermo Fisher Scientific, Waltham, MA, USA) and transfected into T-REx-293 cells (Thermo Fisher Scientific) to obtain stable cell lines expressing human TRPA1, TRPV1, TRPV4, and TRPM8. Next, the cells were cultured in Dulbecco’s Modified Eagle Medium containing 10% fetal bovine serum (FBS), 4 mM L-glutamine, and penicillin/streptomycin.
(§2) First, cells were suspended in culture medium with 1 µg/mL of tetracycline and seeded on a poly-D-lysine-coated 96-well plate at a density of 2.5 × 10^4 cells/well overnight. Next, the cells were used for Ca^2+ influx assay, as described previously with minor modifications, using a FLIPR Calcium 5 Assay Kit (Molecular Devices, San Jose, CA, USA). Briefly, cells were incubated in 80 µL of a Ca^2+-chelating dye dissolved in assay buffer at pH 7.4 (Hanks’ Balanced Salt Solution containing 20 mmol/L of 4-(2-hydroxyethyl)-1-piperazineethanesulfonic acid [HEPES]) for 30 min at room temperature. Next, the plates were assayed in a FlexStation 3 microplate reader (Molecular Devices). The fluorescence intensity was traced entirely for 80 s, and the fluorescence baseline was measured 20 s before application of 20 µL of the test compound (final concentration = 10 µmol/L). The response was expressed as percentage activation as follows:
(§3) Relative fluorescence units (RFU) (% activation) = ([RFUmax − RFUbaseline]/RFUbaseline) × 100
(§4) The activity of each test compound against TRPA1, TRPV1, TRPV4, and TRPM8 was represented as the relative enhancement of the Ca^2+ influx of each positive control as follows: 20 µmol/L of allyl isothiocyanate (TRPA1 agonist), 2 µmol/L of capsaicin (TRPV1 agonist), 4 µmol/L of GSK1016790A (TRPV4 agonist), and 20 µmol/L of icilin (TRPM8 agonist). The dose–response curve was fitted to the sigmoidal dose–response equation (Top: maximum response of each compound), and EC50 was calculated using GraphPad prism 7 software (GraphPad, San Diego, CA, USA).
(§5) Calcium ion influx into TRPA1-, TRPV1-, TRPV4-, or TRPM8-expressing T-REx-293 cells was measured to evaluate the agonistic effect of shimotsuto ingredients on TRP channels. The action of 10 µmol/L of each test ingredient was represented as the relative enhancement of the Ca^2+ influx of each positive control, indicated as follows: 20 µmol/L each of allyl isothiocyanate (TRPA1 agonist), 2 µmol/L capsaicin (TRPV1 agonist), 4 µmol/L GSK1016790A (TRPV4 agonist), and 20 µmol/L icilin (TRPM8 agonist). Dose–response tests of shimotsuto ingredients against TRPA1 were performed to calculate EC50.

In a further data set the target is T2, human TRPV4 (Homo sapiens, UniProt Q9HBA0).
T2 construct: The full length of each of human transient receptor potential ankyrin 1 (TRPA1); expressed in transfected cells
The data set is described as above. To be noted: 10 µmol/L test ingredient, positive control 4 µmol/L GSK1016790A, read-out: % Activation compared to positive control, TRPV4. It is filed as cell-based.
From the text: as §1, §2, §3, §4, §5

The target of the next data set is T3, human TRPA1 (Homo sapiens, UniProt O75762).
T3 construct: The full length of each of human transient receptor potential ankyrin 1 (TRPA1); expressed in transfected cells
Described as above. In kind it is cell-based. As to conditions: for activation at 10 µM: T-REx-293, 10 µmol/L test ingredient, positive control 20 µmol/L allyl isothiocyanate, read-out: % Activation compared to positive control, TRPA1; for Activation of TRPA1 (in words): TRP stable expression cell lines.
From the text: as §1, §2, §3, §4, §5

In another data set the target is T4, human TRPM8 (Homo sapiens, UniProt Q7Z2W7).
T4 construct: The full length of each of human transient receptor potential ankyrin 1 (TRPA1); expressed in transfected cells
Described as above. To be noted: 10 µmol/L test ingredient, positive control 20 µmol/L icilin, read-out: % Activation compared to positive control, TRPM8. It is filed as cell-based.
From the text: as §1, §2, §3, §4, §5

Data set [1] can be described thus: Pharmacokinetics of ingredients in rat plasma after oral administration of shimotsuto (targeted LC–MS/MS). In kind it is in vivo. From the text:
The plasma levels of nine ingredients were quantified using quantitative (targeted) analysis. Among them, seven ingredients (catalpol, paeoniflorin, albiflorin, senkyunolide A, butylphthalide, ferulic acid, and ligustilide) are candidate active ingredients in shimotsuto (Table 1). Two ingredients (bergapten and 8-debenzoylpaeoniflorin) are shimotsuto ingredients which were detected and identified in shimotsuto-treated rat plasma using nontargeted LC–HRMS analysis. The nine ingredients were quantified by collecting plasma samples at 0–24 h after shimotsuto administration, pretreating with the following procedures, and then analyzing by targeted LC–MS/MS using selected reaction-monitoring mode. The LC–MS/MS system was composed of a triple quadruple MS (TripleQuad6500; SCIEX, Framingham, MA, USA) and an Agilent 1290 Infinity LC system (Agilent Technologies, Santa Clara, CA, USA). For highly sensitive and selective quantitative (targeted) analysis of each compound, we preliminarily examined optimal pretreatment and analytical LC–MS/MS methods (e.g., MS parameters and LC conditions).
For quantification of catalpol, paeoniflorin, albiflorin, ferulic acid, and senkyunolide A in plasma, 100 µL of plasma sample was mixed with 20 µL of methanol (or working solution) and 20 µL of internal standard (niflumic acid or swertiamarin) and pretreated by deproteinization using 500 µL of acetonitrile. […] Finally, the dried residue was dissolved in 60 µL of the specific HPLC mobile phase used for analysis and then a 10 μL aliquot was injected into the LC–MS/MS system.
For quantification of ligustilide and butylphthalide in plasma, 200 µL of plasma sample was mixed with 40 µL of methanol (or working solution) and 40 µL of internal standard (imperatorin) and centrifuged at 15000×g for 10 min at 4 °C, the whole volume of supernatant was collected and subsequently pretreated by solid-phase extraction using Oasis HLB Extraction Cartridge (Waters, Milford, MA, USA). The acetonitrile elutes were collected and then dried under a steam of nitrogen gas. Finally, the dried residue was dissolved in 70 µL of the specific HPLC mobile phase and injected 20 µL into the LC–MS/MS system.
For quantification of bergapten in plasma, 100 µL of plasma sample was mixed with 20 µL of methanol (or working solution) and 20 µL of internal standard (niflumic acid) and pretreated by solid-phase extraction using an Oasis HLB 96-well µElution plate. Next, the mixied elutes of acetonitrile and isopropyl alcohol (1:1, v/v) were collected and then dried under a steam of nitrogen gas. Finally, the dried residue was dissolved in 60 µL of the specific HPLC mobile phase and injected 10 µL into the LC–MS/MS system.
For quantification of 8-debenzoylpaeoniflorin in plasma, 100 µL of plasma sample was mixed with 20 µL of methanol (or working solution) and 20 µL of internal standard (niflumic acid) and pretreated by liquid–liquid extraction using 500 µL of ethyl acetate. […] The dried residue was dissolved in 60 µL of the specific HPLC mobile phase and injected 10 µL into the LC–MS/MS system.
In addition, pharmacokinetic parameters of the shimotsuto ingredients detected in the plasma, such as the maximum concentration (Cmax) and area under the plasma level–time curve (AUC0−last), were calculated by noncompartmental moment analysis using Phoenix WinNonlin software (Certara L.P., St. Louis, MO, USA).

Data set [2] is described as follows: Plasma levels of catalpol in humans after goshajinkigan administration (unpublished data). It is filed as in vivo, human. As to conditions: after goshajinkigan (including Rehmanniae Radix) administration.
On the set-up of data set [3]: method as in PMID 31514313. To be noted: ref 18; cited from earlier work.
For data set [4] the following is noted: cited from earlier work.
Data set [5] concerns transient receptor potential ankyrin 1 (TRPA1). Also on record: method as in PMID 21894528. To be noted: ref 15; cited from earlier work.
On the set-up of data set [6]: method as in PMID 8932691. As to conditions: cited from earlier work.

For orientation: AUC(0-t) means exposure summed from dosing to a finite time, without extrapolation to infinity. A low value points to less exposure. As usually defined, the Cmax is the peak of the concentration-time curve. As a reminder, the Tmax is the time from dosing to the highest level. The term half-life denotes the time needed for the level to fall by half in the phase considered. Read a low half-life as rapid decline. For orientation: EC50 means the midpoint of the concentration-response curve.

Like-named read-outs stand apart in the source and are kept apart here.

T2 sequence (Q9HBA0 whole entry): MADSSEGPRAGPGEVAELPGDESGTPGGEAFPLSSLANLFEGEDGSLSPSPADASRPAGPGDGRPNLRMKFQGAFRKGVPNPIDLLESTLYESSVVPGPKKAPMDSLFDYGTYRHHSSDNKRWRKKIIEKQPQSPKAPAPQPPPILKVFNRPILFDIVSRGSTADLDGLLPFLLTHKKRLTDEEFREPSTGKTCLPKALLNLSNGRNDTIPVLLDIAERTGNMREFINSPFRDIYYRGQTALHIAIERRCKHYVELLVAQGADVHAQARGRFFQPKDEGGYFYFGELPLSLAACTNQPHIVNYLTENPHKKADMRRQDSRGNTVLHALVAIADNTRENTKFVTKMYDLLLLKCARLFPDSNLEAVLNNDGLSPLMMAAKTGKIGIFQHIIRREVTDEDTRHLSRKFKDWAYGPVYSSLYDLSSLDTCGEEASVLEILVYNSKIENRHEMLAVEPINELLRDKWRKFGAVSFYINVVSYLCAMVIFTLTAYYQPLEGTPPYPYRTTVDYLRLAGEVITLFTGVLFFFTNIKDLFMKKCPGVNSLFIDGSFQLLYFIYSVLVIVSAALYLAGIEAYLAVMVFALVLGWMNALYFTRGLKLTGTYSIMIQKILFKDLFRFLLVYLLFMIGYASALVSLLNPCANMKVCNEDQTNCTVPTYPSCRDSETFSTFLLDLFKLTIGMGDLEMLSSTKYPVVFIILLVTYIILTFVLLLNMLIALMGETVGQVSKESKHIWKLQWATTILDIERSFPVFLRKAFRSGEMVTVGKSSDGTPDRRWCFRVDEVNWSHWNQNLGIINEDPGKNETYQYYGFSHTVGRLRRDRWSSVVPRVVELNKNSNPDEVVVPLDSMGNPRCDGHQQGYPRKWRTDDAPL
T3 sequence (O75762 whole entry): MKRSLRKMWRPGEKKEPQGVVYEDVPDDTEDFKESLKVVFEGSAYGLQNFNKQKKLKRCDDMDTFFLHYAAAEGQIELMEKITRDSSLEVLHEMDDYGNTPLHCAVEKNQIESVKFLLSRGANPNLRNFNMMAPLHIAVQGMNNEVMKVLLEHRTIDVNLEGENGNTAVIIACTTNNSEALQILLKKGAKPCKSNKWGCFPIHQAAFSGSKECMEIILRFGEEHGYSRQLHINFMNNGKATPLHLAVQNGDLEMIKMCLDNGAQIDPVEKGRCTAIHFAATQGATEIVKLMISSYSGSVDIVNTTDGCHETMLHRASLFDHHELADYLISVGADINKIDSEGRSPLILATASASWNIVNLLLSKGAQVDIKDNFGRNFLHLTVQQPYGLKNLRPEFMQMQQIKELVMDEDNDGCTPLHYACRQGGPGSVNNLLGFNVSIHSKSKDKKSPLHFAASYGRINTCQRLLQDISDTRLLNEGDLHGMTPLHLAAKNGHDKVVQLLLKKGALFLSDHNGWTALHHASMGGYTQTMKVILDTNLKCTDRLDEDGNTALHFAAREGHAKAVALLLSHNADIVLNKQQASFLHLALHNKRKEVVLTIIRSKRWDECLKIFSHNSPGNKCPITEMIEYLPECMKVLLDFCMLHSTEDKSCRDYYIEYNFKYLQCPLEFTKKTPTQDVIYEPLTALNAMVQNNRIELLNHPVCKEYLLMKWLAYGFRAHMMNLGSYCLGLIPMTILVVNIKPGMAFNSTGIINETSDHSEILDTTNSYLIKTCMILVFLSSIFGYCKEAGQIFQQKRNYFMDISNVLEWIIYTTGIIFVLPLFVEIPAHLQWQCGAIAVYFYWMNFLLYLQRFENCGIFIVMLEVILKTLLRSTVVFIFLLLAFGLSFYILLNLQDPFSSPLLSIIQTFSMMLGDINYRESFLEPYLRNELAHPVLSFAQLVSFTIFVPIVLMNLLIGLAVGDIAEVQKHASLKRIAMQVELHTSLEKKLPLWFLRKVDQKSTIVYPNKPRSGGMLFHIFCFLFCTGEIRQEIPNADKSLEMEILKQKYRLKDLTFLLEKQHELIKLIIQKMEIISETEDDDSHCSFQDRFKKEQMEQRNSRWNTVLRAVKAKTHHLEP
T1 sequence (Q8NER1 whole entry): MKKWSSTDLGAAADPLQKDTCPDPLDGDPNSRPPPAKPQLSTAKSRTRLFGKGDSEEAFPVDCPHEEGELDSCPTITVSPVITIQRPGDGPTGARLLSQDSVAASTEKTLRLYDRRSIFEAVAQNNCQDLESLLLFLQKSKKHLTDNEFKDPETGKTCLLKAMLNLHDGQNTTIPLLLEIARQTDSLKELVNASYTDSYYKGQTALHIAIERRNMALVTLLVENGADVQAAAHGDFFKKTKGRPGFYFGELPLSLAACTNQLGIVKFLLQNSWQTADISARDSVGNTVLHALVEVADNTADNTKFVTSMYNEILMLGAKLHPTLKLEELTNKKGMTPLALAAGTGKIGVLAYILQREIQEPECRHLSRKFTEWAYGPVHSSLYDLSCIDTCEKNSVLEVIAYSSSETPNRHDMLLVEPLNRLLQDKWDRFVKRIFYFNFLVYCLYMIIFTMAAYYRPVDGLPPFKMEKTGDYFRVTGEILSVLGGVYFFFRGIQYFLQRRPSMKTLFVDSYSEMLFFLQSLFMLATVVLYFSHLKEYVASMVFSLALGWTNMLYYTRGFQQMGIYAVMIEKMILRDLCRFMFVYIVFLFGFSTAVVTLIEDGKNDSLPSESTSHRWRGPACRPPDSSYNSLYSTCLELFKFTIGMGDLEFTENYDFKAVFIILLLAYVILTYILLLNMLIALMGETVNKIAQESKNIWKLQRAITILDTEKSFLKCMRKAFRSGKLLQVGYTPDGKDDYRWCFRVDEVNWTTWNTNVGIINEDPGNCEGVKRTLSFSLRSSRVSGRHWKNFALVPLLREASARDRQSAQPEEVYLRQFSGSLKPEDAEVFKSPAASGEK
T4 sequence (Q7Z2W7 whole entry): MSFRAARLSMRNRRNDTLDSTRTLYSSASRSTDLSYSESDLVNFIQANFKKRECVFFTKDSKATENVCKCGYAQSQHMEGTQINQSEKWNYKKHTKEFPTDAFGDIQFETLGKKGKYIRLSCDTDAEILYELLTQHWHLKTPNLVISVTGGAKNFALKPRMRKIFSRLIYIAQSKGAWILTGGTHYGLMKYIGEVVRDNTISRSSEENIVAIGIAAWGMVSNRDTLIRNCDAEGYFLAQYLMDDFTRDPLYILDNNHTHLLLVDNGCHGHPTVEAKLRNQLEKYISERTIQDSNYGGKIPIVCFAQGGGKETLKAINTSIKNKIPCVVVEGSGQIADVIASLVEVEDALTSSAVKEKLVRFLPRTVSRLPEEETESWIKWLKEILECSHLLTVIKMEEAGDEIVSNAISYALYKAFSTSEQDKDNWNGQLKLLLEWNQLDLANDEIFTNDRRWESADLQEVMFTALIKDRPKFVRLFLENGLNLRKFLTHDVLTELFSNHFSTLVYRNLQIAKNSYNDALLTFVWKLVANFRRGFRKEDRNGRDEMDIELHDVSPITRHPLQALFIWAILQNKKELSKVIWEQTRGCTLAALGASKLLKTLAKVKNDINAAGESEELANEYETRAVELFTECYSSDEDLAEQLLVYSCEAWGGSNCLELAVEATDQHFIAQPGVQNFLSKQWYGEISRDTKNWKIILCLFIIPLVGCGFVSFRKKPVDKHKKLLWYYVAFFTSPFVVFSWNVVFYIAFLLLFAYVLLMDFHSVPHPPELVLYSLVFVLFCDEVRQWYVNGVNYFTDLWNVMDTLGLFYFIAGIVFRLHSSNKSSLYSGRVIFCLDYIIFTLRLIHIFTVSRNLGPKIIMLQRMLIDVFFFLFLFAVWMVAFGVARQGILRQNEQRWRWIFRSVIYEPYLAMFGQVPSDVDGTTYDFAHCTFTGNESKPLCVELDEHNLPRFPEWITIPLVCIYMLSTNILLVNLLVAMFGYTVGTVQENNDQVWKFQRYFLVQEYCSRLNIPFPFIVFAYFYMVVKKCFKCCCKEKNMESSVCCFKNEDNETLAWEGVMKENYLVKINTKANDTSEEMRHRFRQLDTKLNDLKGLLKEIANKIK

For the compound `CC12CC(O)C3CC1(OC1OC(CO)C(O)C(O)C1O)C3(COC(=O)c1ccccc1)C(=O)O2` (stereo not drawn) [Albiflorin], the “Pharmacological action related to improvement of blood and the circulatory system” value (from here on “Pharmacological action related”) in the data set with blood viscosity was “Reduction of blood viscosity via antithrombotic effect in rat model [12]”. The activation at 10 µM at human TRPV1 came out at 0%. In addition, on human TRPV4, the activation at 10 µM is -1%. In addition, the activation at 10 µM at human TRPA1 stood at 1%. In addition, the activation at 10 µM on human TRPM8 worked out at 1%. For the same compound, in [1] (rat, in vivo, po, 1 g/kg), the AUC(0-t) amounted to 24.2 ng·h/mL, the Cmax was determined as 6.34 ng/mL, the Tmax amounted to 30 min and the half-life is 163 min.
As for `OC[C@H]1O[C@@H](O[C@@H]2OC=C[C@H]3[C@H](O)[C@@H]4O[C@]4(CO)[C@@H]23)[C@H](O)[C@@H](O)[C@@H]1O` [Catalpol], the “Plasma levels in humans” value in [2] is “quite low”. At human TRPV1, the activation at 10 µM was determined as 0%. At human TRPV4, the activation at 10 µM worked out at 0%. Further, the activation at 10 µM at human TRPA1 was 2%. Besides, on human TRPM8, the activation at 10 µM turned out to be 3%. For the same compound, in data set [1] (rat, in vivo, po, 1 g/kg), the AUC(0-t) was 2030 ng·h/mL, the Cmax was 1360 ng/mL, the Tmax came to 60 min and the half-life is 38.6 min. In [3], the Absolute bioavailability is listed as 66.7%. The “Pharmacological action related” value in [4] (ref 11) was “Protective effect on vascular endothelial function via multiple actions such as induction of serum nitric oxide [11]”.
On to `CCC/C=C1\OC(=O)C2=C1CCC=C2` [Ligustilide], for which the activation at 10 µM is 0% on human TRPV1, -1% at human TRPV4, 87% at human TRPA1 and 18% at human TRPM8. On human TRPA1, the “Activation of TRPA1 (in words)” value is “potently activated”. At human TRPA1 (dose–response test, Ca2+ influx, read-out: EC50 against TRPA1), the EC50 came out at 1300 nM. For the same compound, the “Pharmacological action related” value was “Activation of transient receptor potential ankyrin 1 (TRPA1; which plays a role in vasodilation)” in data set [5]; “vasorelaxation” in data set [4] (ref 8); “vasorelaxation and increased blood flow effects” in data set [4] (ref 13). In data set [1] (rat, in vivo, po, 1 g/kg), this compound returned an AUC(0-t) of 0.916 ng·h/mL. In addition, the Cmax in [1] (rat, in vivo, po, 1 g/kg) turned out to be 2.83 ng/mL. Besides, the Tmax in [1] (rat, in vivo, po, 1 g/kg) worked out at 30 min.
For the compound `C[C@@]12C[C@@]3(O)O[C@@H](O1)[C@]1(COC(=O)c4ccccc4)[C@H]3C[C@@]12O[C@@H]1O[C@H](CO)[C@@H](O)[C@H](O)[C@H]1O` [Paeoniflorin], in the data set with blood viscosity, the “Pharmacological action related” value is “Reduction of blood viscosity via antithrombotic effect in rat model [12]”. Also, the activation at 10 µM was -1% on human TRPV1, 0% at human TRPV4, 1% on human TRPA1 and 0% at human TRPM8. Also, the Tmax in [1] (rat plasma, oral shimotsuto 1 g/kg, from mean concentration (n = 3) per time point) is 30 min. Moreover, the AUC(0-t) in data set [1] (rat, in vivo, po, 1 g/kg) was 83.6 ng·h/mL. For the same compound, the highest level in [1] (rat, in vivo, po, 1 g/kg) (Cmax) was 36.3 ng/mL. For the same compound, in data set [1] (rat, in vivo, po, 1 g/kg), the half-life was 88.8 min. For the same compound, the Cumulative biliary excretion in [6] (after oral administration of paeoniflorin, within 24 h) was 1.3 % of the dose. Moreover, the Bioavailability result in data set [6] (in rats) is on record as “low”.
Turning to `CCCC[C@@H]1OC(=O)C2=C1CCC=C2` [Senkyunolide A], the activation at 10 µM at human TRPV1 is 1%; on human TRPV4, 0%; at human TRPA1 it was 86%; at human TRPM8, -1%. The compound also showed an EC50 at human TRPA1 of 1000 nM. Also, on human TRPA1, the “Activation of TRPA1 (in words)” value is recorded as “potently activated”. In addition, the AUC(0-t) in data set [1] (rat, in vivo, po, 1 g/kg) amounted to 8.04 ng·h/mL. The compound also registered a Cmax in data set [1] (rat, in vivo, po, 1 g/kg) of 28.9 ng/mL. Besides, in [1] (rat, in vivo, po, 1 g/kg), the Tmax came out at 15 min. Besides, the “Pharmacological action related” value in data set [4] (ref 8) was “Vasorelaxation”; in data set [4] (ref 13) it was “vasorelaxation and increased blood flow effects”.
